Tested on: human sense of taste
Test: Sweetness measured by human sense of taste (20 trained subjects, minimum concentration at which sweetness is first sensed)
Type: in vivo
Settings: for Multiples of increased sweetness to minor-type brazzein: relative to minor-type brazzein; for Minimum stimulation level in which one senses sweetness for first time: 20 trained subjects; for Sweetness ratios of sucrose (1 g/100 ml) to primary brazzein variants (minor-type brazzein: 2000) / Sweetness ratios of sucrose (1 g/100 ml) to brazzein multi-variants: relative to 1 g/100 ml sucrose threshold
Description: Since the recombinant brazzein according to the present invention is not a sucrose-based compound having a cyclic ring, the sweetness of the recombinant brazzein was not measured using a saccharometer. Therefore, the activity of the recombinant brazzein was measured using the human sense of taste. Sugar content measurement was performed on 20 subjects who were trained to feel substantially the same minimum concentration of sucrose in which they could sense sweetness using a sucrose solution. That is, a concentration of each brazzein variant in which the subjects could sense sweetness for the first time was measured. Also, a sweetness ratio of the sucrose solution to the wild-type brazzein was 1 g/100 ml, which was a minimum stimulation level in which the subjects could sense sweetness. Also, a sweetness ratio of the minor-type brazzein protein to the wild-type brazzein was 500 μg/100 ml, which was a minimum stimulation level in which the subjects could sense sweetness. Therefore, the sweetness was calculated using the sweetness ratios (That is, 1/0.0005=2000 for the minor-type brazzein).
Also, the brazzein multi-variants were measured for activity (sweetness) in the same manner as in Example 3-1.

Row | Compound | Minimum stimulation level in which the subjects could sense sweetness (sucrose solution) [g/100 ml] | Multiples of increased sweetness to minor-type brazzein (primary brazzein variants) | Minimum stimulation level in which one senses sweetness for first time (primary brazzein variants) | Sweetness ratios of sucrose (1 g/100 ml) to primary brazzein variants (minor-type brazzein: 2000) | Multiples of increased sweetness to minor-type brazzein (brazzein multi-variants) | Sweetness ratios of sucrose (1 g/100 ml) to brazzein multi-variants
1 | OC[C@H]1O[C@@](CO)(O[C@H]2O[C@H](CO)[C@@H](O)[C@H](O)[C@H]2O)[C@@H](O)[C@@H]1O [sucrose, reference compound] | 1 | – | – | – | – | –
2 | E35A: primary brazzein variant: Glu at position 35 of minor-type brazzein substituted with Ala (DKCKKVYENYPVSKCQLANQCNYDCKLRKHARSGACFYDEKRNLQCICDYCEY; Brazzein(E35A)) [Brazzein E35A] | – | 0.05 | 10,000 μg/100 ml | 100 | – | –
3 | E35D_E40A: secondary brazzein variant of minor-type brazzein with substitutions E35D and E40A (DKCKKVYENYPVSKCQLANQCNYDCKLRKHAKSGDCFYDAKRNLQCICDYCEY; Brazzein(E35D_E40A)) [Brazzein E35D_E40A] | – | – | – | – | 5 | 10,000
4 | E35D_E40D: secondary brazzein variant of minor-type brazzein with substitutions E35D and E40D (DKCKKVYENYPVSKCQLANQCNYDCKLRKHAKSGDCFYDDKRNLQCICDYCEY; Brazzein(E35D_E40D)) [Brazzein E35D_E40D] | – | – | – | – | 5 | 10,000
5 | E35D_E40K: secondary brazzein variant of minor-type brazzein with substitutions E35D and E40K (DKCKKVYENYPVSKCQLANQCNYDCKLRKHAKSGDCFYDKKRNLQCICDYCEY; Brazzein(E35D_E40K)) [Brazzein E35D_E40K] | – | – | – | – | 4 | 8,000
6 | E35D_E40R: secondary brazzein variant of minor-type brazzein with substitutions E35D and E40R (DKCKKVYENYPVSKCQLANQCNYDCKLRKHAKSGDCFYDRKRNLQCICDYCEY; Brazzein(E35D_E40R)) [Brazzein E35D_E40R] | – | – | – | – | 6 | 12,000
7 | E35H: primary brazzein variant: Glu at position 35 of minor-type brazzein substituted with His (DKCKKVYENYPVSKCQLANQCNYDCKLRKHARSGHCFYDEKRNLQCICDYCEY; Brazzein(E35H)) [Brazzein E35H] | – | 0.08 | 6,000 μg/100 ml | 167 | – | –
8 | E35K: primary brazzein variant: Glu at position 35 of minor-type brazzein substituted with Lys (DKCKKVYENYPVSKCQLANQCNYDCKLRKHARSGKCFYDEKRNLQCICDYCEY; Brazzein(E35K)) [Brazzein E35K] | – | 0.08 | 6,000 μg/100 ml | 167 | – | –
9 | E35R: primary brazzein variant: Glu at position 35 of minor-type brazzein substituted with Arg (DKCKKVYENYPVSKCQLANQCNYDCKLRKHARSGRCFYDEKRNLQCICDYCEY; Brazzein(E35R)) [Brazzein E35R] | – | 0.08 | 6,000 μg/100 ml | 167 | – | –
10 | E40H: primary brazzein variant: Glu at position 40 of minor-type brazzein substituted with His (DKCKKVYENYPVSKCQLANQCNYDCKLRKHARSGECFYDHKRNLQCICDYCEY; Brazzein(E40H)) [Brazzein E40H] | – | 2 | 250 μg/100 ml | 4,000 | – | –
11 | H30A: primary brazzein variant: His at position 30 of minor-type brazzein substituted with Ala (DKCKKVYENYPVSKCQLANQCNYDCKLRKAARSGECFYDEKRNLQCICDYCEY; Brazzein(H30A)) [Brazzein H30A] | – | 0.08 | 6,000 μg/100 ml | 167 | – | –
12 | H30D: primary brazzein variant: His at position 30 of minor-type brazzein substituted with Asp (DKCKKVYENYPVSKCQLANQCNYDCKLRKDARSGECFYDEKRNLQCICDYCEY; Brazzein(H30D)) [Brazzein H30D] | – | 0.16 | 3,000 μg/100 ml | 334 | – | –
13 | H30E: primary brazzein variant: His at position 30 of minor-type brazzein substituted with Glu (DKCKKVYENYPVSKCQLANQCNYDCKLRKEARSGECFYDEKRNLQCICDYCEY; Brazzein(H30E)) [Brazzein H30E] | – | 0.16 | 3,000 μg/100 ml | 334 | – | –
14 | H30K: primary brazzein variant: His at position 30 of minor-type brazzein substituted with Lys (DKCKKVYENYPVSKCQLANQCNYDCKLRKKARSGECFYDEKRNLQCICDYCEY; Brazzein(H30K)) [Brazzein H30K] | – | 2 | 250 μg/100 ml | 4,000 | – | –
15 | H30R_E40A: secondary brazzein variant of minor-type brazzein with substitutions H30R and E40A (DKCKKVYENYPVSKCQLANQCNYDCKLRKRAKSGECFYDAKRNLQCICDYCEY; Brazzein(H30R_E40A)) [Brazzein H30R_E40A] | – | – | – | – | 4 | 8,000
16 | H30R_E40D: secondary brazzein variant of minor-type brazzein with substitutions H30R and E40D (DKCKKVYENYPVSKCQLANQCNYDCKLRKRAKSGECFYDDKRNLQCICDYCEY; Brazzein(H30R_E40D)) [Brazzein H30R_E40D] | – | – | – | – | 4 | 8,000
17 | H30R_E40K: secondary brazzein variant of minor-type brazzein with substitutions H30R and E40K (DKCKKVYENYPVSKCQLANQCNYDCKLRKRAKSGECFYDKKRNLQCICDYCEY; Brazzein(H30R_E40K)) [Brazzein H30R_E40K] | – | – | – | – | 5 | 10,000
18 | H30R_E40R: secondary brazzein variant of minor-type brazzein with substitutions H30R and E40R (DKCKKVYENYPVSKCQLANQCNYDCKLRKRAKSGECFYDRKRNLQCICDYCEY; Brazzein(H30R_E40R)) [Brazzein H30R_E40R] | – | – | – | – | 5 | 10,000
